Measurements taken from patent US10787443B2, “RAF-degrading conjugate compounds” (ZAMBONI CHEM SOLUTIONS INC., priority 2017, dated 2020).

Experiments:
BRAF/VHL = BRAF/VHL (Homo sapiens, UniProt P15056+P40337); details: FIG. 12; various concentrations
[1] = tested on: GST-Braf kinase domain and biotinylated E3 substrate adapter (VHL/EloB/EloC complex or CRBN318-425); test: Dimerization assay (AlphaScreen/AlphaLisa), RAF/E3 dimerization; type: binding; details: Table 17; relative value; compounds 4 fold serial dilutions from 20 μM
[2] = biological target: T1, CRAF (CRAF fusion protein with a fluorescent protein) in Calu-6 cells (Homo sapiens, UniProt P04049); test: Degradation assay, fluorescent CRAF fusion protein levels in Calu-6 cells (IncuCyte S3); type: cell-based; details: fluorescence/confluence
T1 construct: fluorescent protein (green); expressed in transfected cells; host or cells: Calu-6
T1 sequence (P04049 whole entry, the tested form may be a part): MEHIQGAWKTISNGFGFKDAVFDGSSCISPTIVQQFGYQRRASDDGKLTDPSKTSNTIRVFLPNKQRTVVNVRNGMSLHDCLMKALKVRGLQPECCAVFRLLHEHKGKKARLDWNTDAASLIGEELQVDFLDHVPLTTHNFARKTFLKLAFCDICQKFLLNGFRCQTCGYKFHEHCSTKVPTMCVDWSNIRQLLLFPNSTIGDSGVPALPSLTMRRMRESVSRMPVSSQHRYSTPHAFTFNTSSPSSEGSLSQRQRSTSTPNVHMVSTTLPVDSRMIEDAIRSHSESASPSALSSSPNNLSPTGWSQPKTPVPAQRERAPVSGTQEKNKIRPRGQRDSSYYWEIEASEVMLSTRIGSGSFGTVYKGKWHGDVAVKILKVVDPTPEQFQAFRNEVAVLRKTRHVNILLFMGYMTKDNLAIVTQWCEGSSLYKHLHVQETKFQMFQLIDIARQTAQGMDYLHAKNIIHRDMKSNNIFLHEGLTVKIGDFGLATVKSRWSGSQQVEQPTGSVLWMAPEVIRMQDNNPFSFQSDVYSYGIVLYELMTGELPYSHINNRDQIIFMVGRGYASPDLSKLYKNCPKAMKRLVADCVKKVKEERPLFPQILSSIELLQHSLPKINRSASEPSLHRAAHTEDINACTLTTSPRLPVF
Procedure: Calu-6 cells were stably transfected with a CRAF fusion protein with a fluorescent protein attached to the C-terminus of CRAF in order to monitor protein levels via fluorescence. Cells were seeded into a 96-well plate and allowed to adhere overnight. The next day cells are treated with compounds at the doses indicated in the table below and analyzed over time. Data was collected by monitoring Fluorescent CRAF protein levels an IncuCyte S3 Live Cell Analysis System (Essen BioScience). […] Calu6_CRAF fusion protein cells are imaged and analyzed using an Incucyte S3 live-cell analysis system (Essen Biosciences). Fluorescence signal is due to expression of the fluorescent protein covalently fused to the C-terminus of CRAF and degradation is assessed by measuring fluorescence/confluence (˜cell number) after treatment with compounds of the present disclosure. Phase contrast images are analyzed using Incucyte S3 software. Percent confluence is calculated using a phase contrast mask to quantify the area of the image occupied by the Calu6_CRAF fusion protein cells. Fluorescent images are analyzed using Incucyte S3 software. Green Corrected Units (GCU) is calculated using a fluorescence mask to quantify the area of the image occupied by green fluorescent signal and the intensity of the signal. […] As discussed above, degradation is measured as a function of fluorescence/confluence.

BRAF/VHL, sequence (P15056 457-717 limits assumed): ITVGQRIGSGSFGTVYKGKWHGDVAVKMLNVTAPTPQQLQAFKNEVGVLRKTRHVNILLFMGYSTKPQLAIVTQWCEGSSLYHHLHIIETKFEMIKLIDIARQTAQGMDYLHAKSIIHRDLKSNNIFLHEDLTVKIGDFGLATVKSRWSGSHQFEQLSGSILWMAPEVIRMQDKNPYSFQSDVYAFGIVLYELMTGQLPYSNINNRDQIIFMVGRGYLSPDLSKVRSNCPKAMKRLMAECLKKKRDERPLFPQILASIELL
BRAF/VHL, sequence (P40337 54-213 limits assumed): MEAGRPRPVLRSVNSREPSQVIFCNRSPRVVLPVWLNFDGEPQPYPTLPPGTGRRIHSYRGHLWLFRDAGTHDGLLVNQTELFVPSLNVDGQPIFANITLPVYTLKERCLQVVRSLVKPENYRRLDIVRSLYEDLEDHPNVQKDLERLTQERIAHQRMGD
BRAF/VHL, sequence (Q15370 whole entry partner, the tested form may be a part): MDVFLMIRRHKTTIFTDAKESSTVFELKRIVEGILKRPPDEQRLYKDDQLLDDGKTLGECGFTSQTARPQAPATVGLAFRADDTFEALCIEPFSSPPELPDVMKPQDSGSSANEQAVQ
BRAF/VHL, sequence (Q15369 17-112 partner limits assumed): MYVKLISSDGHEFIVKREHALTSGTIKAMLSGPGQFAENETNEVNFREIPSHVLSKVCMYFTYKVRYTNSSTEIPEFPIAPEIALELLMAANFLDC

SMILES | BRAF/VHL dimerization (BRAF/VHL) | RAF/E3 Dimerization [1] | CRAF degradation in Calu6 cells over time ([2]; 2 μM, FIG. 10) | CRAF degradation in Calu6 cells over time ([2]; 12.5 μM, FIG. 7)
Cc1ncc(NC(=O)c2cccc(C(F)(F)F)c2)cc1-c1cnc(OC2CCOCC2)c(N2CCOCC2)c1 [RAF709, reference compound] | does not cause dimerization | – | – | –
Cc1ncc(NC(=O)c2cccc(C(F)(F)F)c2)cc1-c1cnc(OCCOCCOCC(=O)NCCCCCCc2cccc3c2CN(C2CCC(=O)NC2=O)C3=O)c(N2CCOCC2)c1 (centres unmarked) [Compound 2.015, N-(6′-(2-(2-(2-((6-(2-(2,6-dioxopiperidin-3-yl)-1-oxoisoindolin-4-yl)hexyl)amino)-2-oxoethoxy)ethoxy)ethoxy)-2-methyl-5′-morpholino-[3,3′-bipyridin]-5-yl)-3-(trifluoromethyl)benzamide] | – | +++ (50% > RAF/E3 Dimerization ≥ 25) | CRAF degradation | –
Cc1ncc(NC(=O)c2cccc(C(F)(F)F)c2)cc1-c1cnc(OCCOCCOCCOCCOCC(=O)NCCCCCc2cccc3c2CN(C2CCC(=O)NC2=O)C3=O)c(N2CCOCC2)c1 (centres unmarked) [Compound 2.014, N-(5-(2-(2,6-dioxopiperidin-3-yl)-1-oxoisoindolin-4-yl)pentyl)-14-((2′-methyl-5-morpholino-5′-(3-(trifluoromethyl)benzamido)-[3,3′-bipyridin]-6-yl)oxy)-3,6,9,12-tetraoxatetradecan-1-amide] | – | +++++ (RAF/E3 Dimerization ≥75%) | – | CRAF degradation
